Data as given in PMC7998669, “7-(2-Anilinopyrimidin-4-yl)-1-benzazepin-2-ones Designed by a “Cut and Glue” Strategy Are Dual Aurora A/VEGF-R Kinase Inhibitors” (Molecules, 2021).

Legend:
Assay in all cases: radiometric 33PanQinase protein kinase assay
Format in all cases: biochemical
Conditions in all cases: 1 µM ATP
EGF-R = molecular target: T1, EGF-R (Homo sapiens, UniProt P00533)
T1 construct: host or cells: Sf9 (baculovirus)

MET = molecular target: T2, MET (Homo sapiens, UniProt P08581)
T2 construct: host or cells: Sf9 (baculovirus)

EPHB4 = molecular target: T3, EPHB4 (Homo sapiens, UniProt P54760)
T3 construct: host or cells: Sf9 (baculovirus)

CDK4/CycD1 = molecular target: T4, CDK4/CycD1 (Homo sapiens, UniProt P11802)
T4 construct: host or cells: Sf9 (baculovirus)

CK2-alpha1 = molecular target: T5, CK2-alpha1 (Homo sapiens, UniProt P68400)
T5 construct: host or cells: Sf9 (baculovirus)

PLK1 = molecular target: T6, PLK1 (Homo sapiens, UniProt P53350)
T6 construct: host or cells: Sf9 (baculovirus)
T6 sequence (P53350 whole entry): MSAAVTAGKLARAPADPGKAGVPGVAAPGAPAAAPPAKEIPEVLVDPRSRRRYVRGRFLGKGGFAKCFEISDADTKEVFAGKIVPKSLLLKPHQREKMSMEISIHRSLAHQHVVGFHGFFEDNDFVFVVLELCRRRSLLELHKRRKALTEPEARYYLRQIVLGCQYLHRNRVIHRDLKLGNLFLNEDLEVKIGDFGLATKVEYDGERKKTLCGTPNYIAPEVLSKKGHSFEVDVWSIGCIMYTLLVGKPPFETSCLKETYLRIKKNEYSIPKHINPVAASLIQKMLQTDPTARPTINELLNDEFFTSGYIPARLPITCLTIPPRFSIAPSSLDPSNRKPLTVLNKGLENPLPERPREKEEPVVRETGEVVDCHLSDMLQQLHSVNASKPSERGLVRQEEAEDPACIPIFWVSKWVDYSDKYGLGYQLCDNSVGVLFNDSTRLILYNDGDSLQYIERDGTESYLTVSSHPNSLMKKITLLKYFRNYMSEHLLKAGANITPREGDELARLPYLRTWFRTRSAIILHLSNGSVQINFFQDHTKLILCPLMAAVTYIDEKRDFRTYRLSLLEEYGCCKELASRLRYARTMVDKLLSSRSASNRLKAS

AKT1 = molecular target: T7, AKT1 (Homo sapiens, UniProt P31749)
T7 construct: host or cells: Sf9 (baculovirus)
T7 sequence (P31749 whole entry): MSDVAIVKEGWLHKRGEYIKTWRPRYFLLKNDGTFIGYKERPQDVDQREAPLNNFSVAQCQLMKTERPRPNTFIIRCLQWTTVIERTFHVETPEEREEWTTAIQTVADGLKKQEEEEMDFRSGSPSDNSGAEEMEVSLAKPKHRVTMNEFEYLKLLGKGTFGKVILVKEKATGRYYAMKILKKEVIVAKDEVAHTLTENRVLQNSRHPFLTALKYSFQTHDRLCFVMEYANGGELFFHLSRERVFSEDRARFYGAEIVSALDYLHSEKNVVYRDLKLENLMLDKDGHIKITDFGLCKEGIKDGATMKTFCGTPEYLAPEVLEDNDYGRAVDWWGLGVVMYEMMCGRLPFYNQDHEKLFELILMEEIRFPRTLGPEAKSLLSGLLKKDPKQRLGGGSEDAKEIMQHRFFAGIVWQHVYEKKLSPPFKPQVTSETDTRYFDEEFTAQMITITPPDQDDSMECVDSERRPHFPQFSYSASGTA

SRC = molecular target: T8, SRC (Homo sapiens, UniProt P12931)
T8 construct: host or cells: Sf9 (baculovirus)
T8 sequence (P12931 whole entry): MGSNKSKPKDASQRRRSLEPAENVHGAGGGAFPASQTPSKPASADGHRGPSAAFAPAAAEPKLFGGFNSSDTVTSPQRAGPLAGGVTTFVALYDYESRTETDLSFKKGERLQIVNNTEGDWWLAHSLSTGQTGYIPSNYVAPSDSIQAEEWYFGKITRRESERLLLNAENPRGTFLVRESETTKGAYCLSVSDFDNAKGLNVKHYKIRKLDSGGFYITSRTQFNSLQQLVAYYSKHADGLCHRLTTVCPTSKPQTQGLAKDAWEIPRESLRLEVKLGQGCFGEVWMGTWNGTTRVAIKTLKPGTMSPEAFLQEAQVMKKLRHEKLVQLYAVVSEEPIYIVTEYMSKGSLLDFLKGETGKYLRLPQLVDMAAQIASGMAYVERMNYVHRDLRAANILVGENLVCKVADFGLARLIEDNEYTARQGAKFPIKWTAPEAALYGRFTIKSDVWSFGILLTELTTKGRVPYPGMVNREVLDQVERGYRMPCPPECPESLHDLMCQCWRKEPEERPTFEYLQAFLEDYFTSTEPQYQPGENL

PDK1 = molecular target: T9, PDK1 (Homo sapiens, UniProt O15530)
T9 construct: host or cells: Sf9 (baculovirus)

ERBB2 = molecular target: T10, ERBB2 (Homo sapiens, UniProt P04626)
T10 construct: host or cells: Sf9 (baculovirus)

FAK = molecular target: T11, FAK (Homo sapiens, UniProt Q05397)
T11 construct: host or cells: Sf9 (baculovirus)
T11 sequence (Q05397 whole entry): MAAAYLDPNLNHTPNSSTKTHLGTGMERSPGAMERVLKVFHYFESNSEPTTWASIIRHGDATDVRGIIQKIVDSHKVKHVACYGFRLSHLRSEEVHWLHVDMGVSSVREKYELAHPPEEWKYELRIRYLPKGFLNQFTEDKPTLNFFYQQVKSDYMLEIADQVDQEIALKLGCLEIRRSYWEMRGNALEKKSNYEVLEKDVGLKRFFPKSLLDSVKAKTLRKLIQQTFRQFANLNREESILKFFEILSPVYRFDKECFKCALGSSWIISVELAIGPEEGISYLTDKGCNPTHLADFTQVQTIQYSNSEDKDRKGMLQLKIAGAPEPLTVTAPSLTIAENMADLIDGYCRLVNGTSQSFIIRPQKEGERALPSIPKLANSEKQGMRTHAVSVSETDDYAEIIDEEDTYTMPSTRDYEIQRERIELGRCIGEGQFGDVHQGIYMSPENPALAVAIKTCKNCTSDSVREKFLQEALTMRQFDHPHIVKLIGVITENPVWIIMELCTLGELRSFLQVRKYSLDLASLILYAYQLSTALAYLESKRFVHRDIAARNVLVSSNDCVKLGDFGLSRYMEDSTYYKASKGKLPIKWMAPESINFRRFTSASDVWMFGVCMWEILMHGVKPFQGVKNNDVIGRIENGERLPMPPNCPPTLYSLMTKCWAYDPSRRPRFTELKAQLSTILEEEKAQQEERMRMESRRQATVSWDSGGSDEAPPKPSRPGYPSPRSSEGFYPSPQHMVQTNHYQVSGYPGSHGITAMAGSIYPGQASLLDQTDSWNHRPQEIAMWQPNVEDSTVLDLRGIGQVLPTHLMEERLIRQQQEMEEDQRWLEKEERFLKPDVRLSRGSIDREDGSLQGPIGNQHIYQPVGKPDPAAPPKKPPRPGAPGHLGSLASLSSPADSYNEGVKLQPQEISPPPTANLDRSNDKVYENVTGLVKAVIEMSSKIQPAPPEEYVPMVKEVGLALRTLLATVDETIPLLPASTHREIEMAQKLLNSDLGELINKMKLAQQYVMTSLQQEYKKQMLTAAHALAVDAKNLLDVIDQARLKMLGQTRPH

INS-R = molecular target: T12, INS-R (Homo sapiens, UniProt P06213)
T12 construct: host or cells: Sf9 (baculovirus)
T12 sequence (P06213 980-1382 limits assumed): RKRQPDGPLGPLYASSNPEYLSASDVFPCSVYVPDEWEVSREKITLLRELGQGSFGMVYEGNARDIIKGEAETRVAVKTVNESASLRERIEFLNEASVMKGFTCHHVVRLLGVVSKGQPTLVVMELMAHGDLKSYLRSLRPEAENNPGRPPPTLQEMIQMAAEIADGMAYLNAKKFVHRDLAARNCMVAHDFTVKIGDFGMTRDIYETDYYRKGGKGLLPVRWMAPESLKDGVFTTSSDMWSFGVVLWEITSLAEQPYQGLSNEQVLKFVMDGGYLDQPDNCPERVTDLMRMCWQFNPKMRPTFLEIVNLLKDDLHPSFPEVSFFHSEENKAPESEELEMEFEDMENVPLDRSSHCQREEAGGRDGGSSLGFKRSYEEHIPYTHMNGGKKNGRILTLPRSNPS

TIE2 = molecular target: T13, TIE2 (Homo sapiens, UniProt Q02763)
T13 construct: host or cells: Sf9 (baculovirus)

PAK4 = molecular target: T14, PAK4 (Homo sapiens, UniProt O96013)
T14 construct: host or cells: Sf9 (baculovirus)
T14 sequence (O96013 whole entry): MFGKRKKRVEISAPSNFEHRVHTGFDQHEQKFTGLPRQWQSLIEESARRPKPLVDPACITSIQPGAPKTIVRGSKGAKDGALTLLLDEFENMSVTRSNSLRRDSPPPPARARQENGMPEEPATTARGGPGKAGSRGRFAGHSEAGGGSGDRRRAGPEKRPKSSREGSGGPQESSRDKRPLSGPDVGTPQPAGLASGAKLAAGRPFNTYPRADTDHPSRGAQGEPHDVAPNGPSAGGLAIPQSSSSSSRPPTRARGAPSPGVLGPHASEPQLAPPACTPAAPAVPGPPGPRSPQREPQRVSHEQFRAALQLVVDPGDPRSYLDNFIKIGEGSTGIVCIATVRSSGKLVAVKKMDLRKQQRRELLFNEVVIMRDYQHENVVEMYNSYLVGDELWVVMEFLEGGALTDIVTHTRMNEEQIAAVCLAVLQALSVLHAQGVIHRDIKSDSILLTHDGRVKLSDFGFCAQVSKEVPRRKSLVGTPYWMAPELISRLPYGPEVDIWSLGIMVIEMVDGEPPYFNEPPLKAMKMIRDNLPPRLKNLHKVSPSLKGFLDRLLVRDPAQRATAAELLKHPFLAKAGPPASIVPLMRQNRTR

T1 sequence (P00533 25-1210): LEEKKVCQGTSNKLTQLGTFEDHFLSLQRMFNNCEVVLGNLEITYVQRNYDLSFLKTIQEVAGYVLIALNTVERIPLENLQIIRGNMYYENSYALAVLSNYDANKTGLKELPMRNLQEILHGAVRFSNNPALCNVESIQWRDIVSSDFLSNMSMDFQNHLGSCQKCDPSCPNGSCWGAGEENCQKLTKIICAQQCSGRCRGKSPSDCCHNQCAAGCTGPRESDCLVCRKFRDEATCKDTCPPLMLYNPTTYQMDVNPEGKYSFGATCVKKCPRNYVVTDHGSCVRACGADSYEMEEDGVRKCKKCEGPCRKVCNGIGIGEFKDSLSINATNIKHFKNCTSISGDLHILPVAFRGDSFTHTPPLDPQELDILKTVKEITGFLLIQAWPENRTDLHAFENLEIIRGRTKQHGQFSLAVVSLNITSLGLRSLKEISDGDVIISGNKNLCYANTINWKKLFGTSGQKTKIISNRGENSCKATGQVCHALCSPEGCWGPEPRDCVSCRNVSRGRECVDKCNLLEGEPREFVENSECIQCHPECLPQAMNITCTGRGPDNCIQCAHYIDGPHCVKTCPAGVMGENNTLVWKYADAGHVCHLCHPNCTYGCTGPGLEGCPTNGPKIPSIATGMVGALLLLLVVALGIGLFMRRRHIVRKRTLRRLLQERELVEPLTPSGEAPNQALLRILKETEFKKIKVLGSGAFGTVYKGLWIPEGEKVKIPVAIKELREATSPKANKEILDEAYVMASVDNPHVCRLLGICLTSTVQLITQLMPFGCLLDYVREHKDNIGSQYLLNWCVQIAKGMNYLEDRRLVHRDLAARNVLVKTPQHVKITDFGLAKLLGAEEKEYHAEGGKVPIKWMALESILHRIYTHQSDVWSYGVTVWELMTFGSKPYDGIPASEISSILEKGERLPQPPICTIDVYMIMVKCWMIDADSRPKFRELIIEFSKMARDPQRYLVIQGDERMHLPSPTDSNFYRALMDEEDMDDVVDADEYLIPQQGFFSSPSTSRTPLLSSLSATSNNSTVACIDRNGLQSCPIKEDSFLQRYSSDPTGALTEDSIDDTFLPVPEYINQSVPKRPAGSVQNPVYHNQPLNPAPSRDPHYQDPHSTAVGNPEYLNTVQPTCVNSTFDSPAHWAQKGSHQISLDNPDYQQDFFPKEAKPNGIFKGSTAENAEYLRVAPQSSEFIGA

SMILES: O=C1CCCc2cc(-c3ccnc(Nc4ccccc4)n3)ccc2N1 [Compound 2a, 7-(2-Anilinopyrimidin-4-yl)-1,3,4,5-tetrahydro-2H-1-benzazepin-2-one]
- IC50 (EGF-R): > 100 µM
- IC50 (MET): > 100 µM
- IC50 (EPHB4): > 100 µM
- IC50 (CDK4/CycD1): 19 µM
- IC50 (CK2-alpha1): > 100 µM
- IC50 (PLK1): > 100 µM
- IC50 (AKT1): > 100 µM
- IC50 (SRC): 74 µM
- IC50 (PDK1): > 100 µM
- IC50 (ERBB2): > 100 µM
- IC50 (FAK): > 100 µM
- IC50 (INS-R): > 100 µM
- IC50 (TIE2): 19 µM
- IC50 (PAK4): > 100 µM
